Measured values published in patent US8802439B2, “Methods for enhancing infectivity of retroviruses” (priority 2009, dated 2014).
“Also recorded” adds a separate entry of the source.

Experiments:
HIV-1-GFP = experiment: Infectivity of HIV-1-GFP virions (RT-normalized), GFP fluorescence via FACS; assay type: cell-based
Experimental: (§1) 293T cells were transfected with HIV-1-GFP, SIV-GFP, bMLV-GFP, and nMLV-GFP proviral constructs, and in each case CMV-VSV-G, in the presence or absence of PiB or excess Pin1 as described above. Released virions were normalized via RT assay (EnzChek® Reverse Transcriptase Assay Kit), and infectivity on naïve TZMb1 cells was analyzed by GFP fluorescence via FACS (% cells infected).
(§2) Infection assays for retrovirus: Single-round infections: CD4^+ TZM-bl 100,000 cells/well/mL were seeded onto 24-well plates 24 hours prior to infection. These cells were infected in quadruplicate to 24-well plates. Infectivity was scored using an enzymatic galactosidase activity assay. Specifically, infected TZM-bl cells were washed and lysed, and 20 μl of lysate was transferred to a 96-well plate for detecting β-galactosidase activity. 100 μl of reaction buffer Galacton-Star substrate (Applied Biosystems, Bedford, Mass.), diluted 1:50, was added to 20 μl of lysate, and the light emission was measured over 1 second in a microplate luminometer after 30 minutes incubation. […] Replication was monitored by p24 ELISA. […] Viruses were used to infect in duplicate wells, incubated for 48 hours, washed with PBS, trypsinized, fixed in 1% formaldehyde and subsequently analyzed by fluorescence-activated cell sorting (FACS) for percentage cells infected.
We next asked whether Pin1 influences the infectivity of other retroviruses such as SIV, bMLV and nMLV. […] However, unlike previous experiments, virions were normalized via RT assay and infectivity in target cells was analyzed by GFP fluorescence via FACS. […] Note that the observed effect of Pin1 on HIV-1 infectivity using a different means of normalizing viruses (reverse transcriptase activity vs. p24 capsid) and a different means of quantifying infectivity (GFP), agrees with our previous findings above.
We further examined whether blocking Pin1 in producer cells can enhance the infectivity of retroviruses in different primate target cells. […] Infectivity was analyzed by GFP fluorescence via FACS. […]

[1] = cited from earlier work
Pin1 PPIase = Pin1 PPIase (Homo sapiens, UniProt Q13526); conditions: cited from earlier work
Pin1 PPIase, sequence (Q13526 whole entry): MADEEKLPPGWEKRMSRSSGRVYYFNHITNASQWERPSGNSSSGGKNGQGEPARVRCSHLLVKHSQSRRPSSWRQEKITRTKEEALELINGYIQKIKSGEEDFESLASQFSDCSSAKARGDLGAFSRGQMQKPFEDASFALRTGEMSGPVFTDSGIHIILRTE

nMLV-GFP = experiment: Infectivity of nMLV-GFP virions (RT-normalized), GFP fluorescence via FACS; assay type: cell-based; conditions: produced with PiB; TZM, OMK, sMAGI, Vero, CV-1 target cells
Experimental: as §2
We further examined whether blocking Pin1 in producer cells can enhance the infectivity of retroviruses in different primate target cells. […] Infectivity was analyzed by GFP fluorescence via FACS. […] If more cells are infected than the number infected by viruses from untreated cells, this is expressed as a value above 100%—e.g. 2000 cells/10,000 vs 4000 cells/10,000 would be 100% and 200% respectively. […]

SIV-GFP = experiment: Infectivity of SIV-GFP virions (RT-normalized), GFP fluorescence via FACS; assay type: cell-based
Experimental: as §1
Infection assays for retrovirus: Single-round infections: CD4^+ TZM-bl 100,000 cells/well/mL were seeded onto 24-well plates 24 hours prior to infection. These cells were infected in quadruplicate to 24-well plates. Infectivity was scored using an enzymatic galactosidase activity assay. Specifically, infected TZM-bl cells were washed and lysed, and 20 μl of lysate was transferred to a 96-well plate for detecting β-galactosidase activity. 100 μl of reaction buffer Galacton-Star substrate (Applied Biosystems, Bedford, Mass.), diluted 1:50, was added to 20 μl of lysate, and the light emission was measured over 1 second in a microplate luminometer after 30 minutes incubation. For human PBMC infections, cells were exposed to 10 ng of wild-type virus for 6 hours, washed, and split into two flasks: one with 10 μM PiB added on day 0 and 3, and one without PiB. Replication was monitored by p24 ELISA. For measuring infectivity of GFP-virus, 50,000 TZMb1, sMAGI, OMK, Vero, BSC-1 and CV-1 cells/well/mL were seeded onto 6-well plates respectively 24 hours prior to infection. Viruses were used to infect in duplicate wells, incubated for 48 hours, washed with PBS, trypsinized, fixed in 1% formaldehyde and subsequently analyzed by fluorescence-activated cell sorting (FACS) for percentage cells infected.
[…]. In brief, 293T cells were transfected with a SIV-GFP (Mac293), a CMV driven plasmid encoding VSV-G envelope protein alone, or in the presence of 2.0 μM PiB, 10.0 μM PiB, 20.0 μM PiB, or 40.0 μM PiB. […] Infectivity was measured as GFP fluorescence via FACS. […]
We then examined effect of Pin blocking in non-human primate producer cells on viral infectivity. […] Infectivity was analyzed by GFP fluorescence via FACS. […]

HCV = HCV infectivity titer of supernatants from persistently infected HUH-7 cells; assay type: cell-based; conditions: PiB 16 μM and 8 μM, 1 hour pre-treatment plus 9 hours at 37° C.
Experimental: Cells persistently infected with HCV were treated with vehicle (DMSO), an MTP inhibitor (BMS-200150) capable of inhibiting HCV secretion, or with two doses of PiB (16 μM and 8 μM). After 1 hour of pre-treatment at 37° C., cells were washed with warm PBS and further incubated in normal medium containing the same drugs for an additional 9 hours at 37° C. Cell supernatants containing infectious HCV were collected for infectivity titer determination.
Infection assays for HCV: Persistently infected cells were treated with vehicle (DMSO), an MTP inhibitor (BMS-200150) capable of inhibiting HCV secretion, or with two doses of PiB (16 μM and 8 μM). After 1 hour of pre-treatment at 37° C., cells were washed with warm PBS and further incubated in normal medium containing the same inhibitors for an additional 9 hours at 37° C. Cell supernatants containing infectious HCV were collected for infectivity titer determination. […] Note that Pin1 is able to block HIV-1 in the HUH-7 cell line used to propagate HCV.
Persistently infected HUH-7 cells were treated with solvent DMSO (circles), or increasing concentrations of PiB (squares). After 1 hour of pre-treatment cells were washed and further incubated in normal medium containing the same inhibitors for an additional 9 hours at 37° C. Cell supernatants containing infectious HCV were collected for infectivity titer determination.

CCOC(=O)CN1C(=O)c2ccc3c4c(ccc(c24)C1=O)C(=O)N(CC(=O)OCC)C3=O [PiB, diethyl-1,3,6,8-tetrahydro-1,3,6,8-tetraoxobenzo[lmn][3,8]phenanthroline-2,7-diacetate]
boost of HIV-1-GFP infectivity (HIV-1-GFP; produced in 293T with PiB, TZMb1 cells, % cells infected): 3 fold | infectivity of HIV-1-GFP in primate target cell panel (HIV-1-GFP; produced with PiB, TZM, OMK, sMAGI, Vero, CV-1 target cells): enhanced infectivity | boost of HIV-GFP infectivity in OMK cells (HIV-1-GFP; relative to control HIV-1 infectivity seen in sMAGI cells (no infection of OMK with control HIV-1)): 400% | stability at 37° ([1]; 37°): instability | stability in aqueous solution ([1]; aqueous solution): breaks down in aqueous solution | IC50 of Pin1 PPIase activity in vitro (Pin1 PPIase): low mM | infectivity of nMLV-GFP in primate target cell panel (nMLV-GFP): enhanced infectivity | infectivity of VSV-G pseudotyped macaque SIV-GFP (SIV-GFP; produced in 293T with 2.0, 10.0, 20.0 or 40.0 μM PiB): enhanced infectivity in a dose dependent manner | boost of SIV-GFP infectivity (SIV-GFP; produced in 293T with PiB, TZMb1 cells): 1.5 fold | infectivity of SIV produced in non-human primate cells (SIV-GFP; sMAGI, Vero, CV-1 (b135 also OMK) producer cells, human TZM/reporter cells): enhanced infectivity | infectious HCV in cell supernatants (infectivity titer) (HCV): does not enhance HCV infectivity; also recorded: does not enhance replication
